For two compounds, Kd results are on record in PMC8023496, “Immune mediation of HMG-like DSP1 via Toll-Spätzle pathway and its specific inhibition by salicylic acid analogs” (PLoS Pathogens, 2021).

This test deals with rSe-DSP1 (Se-DSP1; dorsal switch protein 1). Put plainly: thermal shift assay (Protein Thermal Shift dye), melting temperature vs ligand concentration. The settings on record: 500 ng protein; ligand 0-8 uM; compounds dissolved in DMSO. Also on record: species or system Spodoptera exigua.

As for `O=C(O)c1ccccc1O` [salicylic acid], the dissociation constant Kd (usually the equilibrium constant for the complex coming apart) is 238 ± 40 nM.
The figure for `CCOc1cc(O)ccc1OC` [3-ethoxy-4-methoxyphenol] is 119 ± 20 nM.
